Results on four compounds are retold here after ChEMBL document CHEMBL1125501, “Probes for narcotic receptor mediated phenomena. 18. Epimeric 6 alpha- and 6 beta-iodo-3,14-dihydroxy-17-(cyclopropylmethyl)-4,5 alpha-epoxymorphinans as potential ligands for opioid receptor single photon emission computed tomography: synthesis, evaluation, and radiochemistry of [125I]-6 …” (J Med Chem, 1992).

For assay [1], the target named is T1, Delta-type opioid receptor (Rattus norvegicus, UniProt P33533). The assay is described as follows: In vito concentration required to displace [3H]DADLE (Kd = 12.2 nM and concentration is 2.1 nM) from low affinity delta-site in rat brain membranes. Format: cell membranes.
T1 sequence (P33533 whole entry): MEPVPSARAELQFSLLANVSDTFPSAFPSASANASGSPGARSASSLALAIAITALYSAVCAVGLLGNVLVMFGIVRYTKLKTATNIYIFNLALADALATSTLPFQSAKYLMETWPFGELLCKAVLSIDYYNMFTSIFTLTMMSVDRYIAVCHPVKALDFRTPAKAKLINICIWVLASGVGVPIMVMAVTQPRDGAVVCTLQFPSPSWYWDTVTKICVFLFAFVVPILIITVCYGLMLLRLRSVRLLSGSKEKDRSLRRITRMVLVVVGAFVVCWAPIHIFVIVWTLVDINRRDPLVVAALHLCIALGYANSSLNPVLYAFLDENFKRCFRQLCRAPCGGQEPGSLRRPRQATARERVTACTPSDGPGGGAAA
Assay [2] concerns the target T2, Kappa-type opioid receptor (Cavia porcellus, UniProt P41144). The assay is described as follows: In vito concentration required to displace [3H]BRM (Kd = 1.0 nM and concentration is 1.8 nM) from opioid receptor kappa 2 in guinea brain membranes. In kind it is cell membranes.
The target in assay [3] is T1, Delta-type opioid receptor. The assay is described as follows: In vito concentration required to displace [3H]DADLE (Kd = […] and concentration is […]) from high affinity delta-site in rat brain membranes. In kind it is cell membranes.
The target in assay [4] is T1, Delta-type opioid receptor. The assay is described as follows: In vito concentration required to displace [3H]-DADLE (Kd = 12.2 nM and concentration is 2.1 nM) from low affinity delta-site in rat brain membranes. In kind it is cell membranes.
The target of assay [5] is T3, Mu-type opioid receptor (Rattus norvegicus, UniProt P33535). Format: cell membranes, Brain, Brain membranes.
T3 sequence (P33535 whole entry): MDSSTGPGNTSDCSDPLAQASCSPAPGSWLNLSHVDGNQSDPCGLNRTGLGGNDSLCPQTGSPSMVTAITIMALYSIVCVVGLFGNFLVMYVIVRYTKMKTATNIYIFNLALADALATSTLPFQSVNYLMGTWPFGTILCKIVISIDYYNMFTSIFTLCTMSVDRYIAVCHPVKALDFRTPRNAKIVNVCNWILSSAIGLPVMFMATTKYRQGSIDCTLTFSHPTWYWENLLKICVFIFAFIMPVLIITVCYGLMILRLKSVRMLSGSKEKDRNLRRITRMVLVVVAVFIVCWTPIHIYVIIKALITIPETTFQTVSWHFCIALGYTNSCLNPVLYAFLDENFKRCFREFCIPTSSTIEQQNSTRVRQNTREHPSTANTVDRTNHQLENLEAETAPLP
The target in assay [6] is T3, Mu-type opioid receptor. In kind it is cell membranes, Brain, Brain membranes. The source holds these as a separate data set.
The target of assay [7] is T2, Kappa-type opioid receptor. The assay is described as follows: In vito concentration required to displace 9 (Kd = […] and concentration is 1.8 nM) from opioid receptor kappa 2 in guinea brain membranes. Format: cell membranes.
In assay [8] the target is T2, Kappa-type opioid receptor. As to the kind of experiment: In vito concentration required to displace [3H]-BRM (Kd = 1.0 nM and concentration is 1.8 nM) from opioid receptor kappa 2 in guinea brain membranes. In kind it is cell membranes.
Assay [9] deals with T3, Mu-type opioid receptor. The assay is described as follows: In vito concentration required to displace [3H]DAGO (Kd = 0.7 nM and concentration is […]) from opioid receptor mu in rat brain membranes. In kind it is cell membranes.
In assay [10] the target is T2, Kappa-type opioid receptor. The assay is described as follows: In vito concentration required to displace 9 (Kd = […] and concentration is 1.8 nM) from opioid receptor kappa 1 in guinea brain membranes. In kind it is cell membranes.

T2 sequence (P41144 whole entry): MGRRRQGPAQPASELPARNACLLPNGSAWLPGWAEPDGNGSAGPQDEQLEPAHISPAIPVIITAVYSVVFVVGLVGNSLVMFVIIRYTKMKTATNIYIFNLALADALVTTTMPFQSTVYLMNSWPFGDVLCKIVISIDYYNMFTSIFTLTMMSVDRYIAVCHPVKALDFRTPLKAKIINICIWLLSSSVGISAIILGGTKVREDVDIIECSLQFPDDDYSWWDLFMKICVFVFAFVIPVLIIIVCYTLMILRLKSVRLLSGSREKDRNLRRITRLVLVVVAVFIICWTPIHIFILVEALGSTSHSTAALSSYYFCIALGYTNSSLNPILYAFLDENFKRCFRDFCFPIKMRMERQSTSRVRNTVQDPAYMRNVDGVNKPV

What is called Ki is the dissociation constant of the complex between target and ligand, obtained from inhibition or displacement. Read a low Ki as a stronger hold on the target. Usually IC50 stands for the concentration that inhibits the measured activity by half. As to `Oc1ccc2c3c1O[C@H]1[C@H](I)CC[C@@]4(O)[C@@H](C2)N(CC2CC2)CC[C@]314`, the Ki is 2.25 nM in [1], 0.29 nM at Mu-type opioid receptor [6] and 2.73 nM in assay [7]. Moreover, the IC50 in [2] came out at 7.65 nM; in assay [3], 25.6 nM; in assay [4] it was 2.64 nM; against Mu-type opioid receptor [5], 0.77 nM.

As for `Oc1ccc2c3c1O[C@H]1[C@@H](I)CC[C@@]4(O)[C@@H](C2)N(CC2CC2)CC[C@]314`, the figures for the Ki (in assay [1]; in assay [8]; at Mu-type opioid receptor [6]) were 6.88 nM, 8.46 nM and 1.65 nM, respectively. In addition, the half-maximal inhibitory concentration (IC50) in assay [2] came to 23.7 nM; in [4] it was 8.06 nM; against Mu-type opioid receptor [5], 4.34 nM.

On to `Oc1ccc2c3c1O[C@H]1[C@H](F)CC[C@@]4(O)[C@@H](C2)N(CC2CC2)CC[C@]314`, for which the Ki in assay [1] was found to be 13.8 nM; in [3], 122 nM; at Mu-type opioid receptor [6] it was 3.42 nM; on Mu-type opioid receptor [9], 3.32 nM; in [10], 3.71 nM. Further, the IC50 in assay [2] was 66 nM; in assay [3], 268 nM; in assay [4], 16.2 nM; against Mu-type opioid receptor [5], 8.98 nM; on Mu-type opioid receptor [9], 11.4 nM.

For `Oc1ccc2c3c1O[C@H]1[C@@H](Br)CC[C@@]4(O)[C@@H](C2)N(CC2CC2)CC[C@]314`, the Ki amounted to 4.92 nM in assay [1]; 7.21 nM in assay [8]; 1.96 nM in [3]; 1.19 nM at Mu-type opioid receptor [6]; 1.23 nM at Mu-type opioid receptor [9]; 0.32 nM in assay [10]. Further, the IC50 was found to be 20.2 nM in assay [2]; 4.3 nM in [3]; 5.77 nM in assay [4]; 3.14 nM against Mu-type opioid receptor [5]; 4.21 nM on Mu-type opioid receptor [9]; 0.7 nM in assay [10].
